{
  "source": "patent US8486916B2",
  "about": "“Medicine, food and drink or feed containing sphingomyelin” (Megmilk Snow Brand Co., Ltd., priority 2005, dated 2013)",
  "key": {"cholera toxin": {"system": "cholera toxin", "details": "in vivo"}, "Male Wistar rats": {"system": "Male Wistar rats", "assay": "Effect of preventing drunken sickness (hangover) after ethyl alcohol administration", "type": "in vivo", "details": "2 mg/kg oral together with 10 ml/kg of 40 (v/v) % ethyl alcohol", "from_the_text": "Male Wistar rats were preliminarily raised for 1 week. Then, the rats of 110 to 120 g in body weight were used. The rats were fasted overnight before the experiment and given neither food nor water during the experiment. The rats were divided into an alcohol single administration group (control group) and a sphingomyelin administration group. Each group contained 5 individuals. […] After administration, the rats were observed until they recovered from drunken symptoms."}, "[1]": {"system": "Chinese hamster lung fibroblast cell line V79", "type": "cell-based", "method": "The antioxidative activity of sphingomyelin was measured according to the method of Nakayama et al. (Mutation Research, vol. 281, pp. 77-80, 1992). […] Then, the antioxidative activity of sphingomyelin was determined using reduction in colony forming activity attributed to hydrogen peroxide as an index for toxicity and assessed based on the extent to which the colony forming activity recovered from such reduction by adding sphingomyelin to the cultured cells for test. The cultured cells for test were inoculated onto a plate and precultured (cell adhesion) for 2 hours. […] The cultured cells for test were incubated for 4 hours so that the cells were allowed to take up sphingomyelin, prior to hydrogen peroxide. Next, the cells were reacted for 30 minutes by the addition of hydrogen peroxide and damaged. After reaction, the cells were cultured for 5 days in a medium containing serum. In this context, the concentration of hydrogen peroxide was set to 60 μM at which colony forming activity was decreased to a few % to approximately 40%. […] In this context, higher cell viability indicates the higher antioxidative activity of the added sphingomyelin."}, "[2]": {"system": "carrageenin-induced edema", "assay": "Carrageenin-induced footpad edema method", "type": "in vivo, Wistar rats", "details": "100 mg/kg oral; 5 hours after λ-carrageenin injection", "method": "The anti-inflammatory effect of sphingomyelin was tested by a carrageenin-induced footpad edema method. Specifically, a test subject shown in Table 15 was suspended in an aqueous solution containing 0.5% carboxymethylcellulose and orally administered (100 mg/kg) to male Wistar rats (body weight: 110 to 130 g, 8 individuals per group) according to the method of Winter et al. (Proceedings of the Society for Experimental Biology & Medicine, vol. 111, pp. 554, 1962). […] An aqueous solution containing 0.5% carboxymethylcellulose and no test substance was administered to rats in a control group. A rate of increase in footpad volume (V0) attributed to the injection of λ-carrageenin was measured in the control group in the same way as above. An carrageenin-induced edema inhibition rate (%) was calculated according to the calculation formula: (V0−V1)×100/V0 and used as the anti-inflammatory activity of the test substance. A higher value of this inhibition rate indicates higher anti-inflammatory activity."}, "[3]": {"system": "sialomucin content in the saliva", "assay": "Effect of promoting sialomucin secretion: sialomucin content in rat saliva", "type": "in vivo, SD rats", "details": "7th day of experimental diet containing 1% of the substance", "method": "Seven-week-old male SD rats (manufactured by Charles River Laboratories, Japan, Inc) were raised under conditions involving humidity of 60%, room temperature of 24° C., and light-dark (12 hour/12 hour) control. All the rats were preliminarily raised for 1 week with a standard diet and then divided into 3 groups each containing 12 individuals. These groups were allowed to freely take their respective experimental diets and raised for 1 week. Rat saliva was collected on the 7th day after the administration of experimental diets. A sialomucin content in the saliva was measured by high-performance liquid chromatography. […] In this context, a sialomucin content in the saliva was measured by the following method: 0.2 ml of a Nembutal solution was intramuscularly injected to rats fasted for 2 hours or longer. After anesthesia, a solution of pilocarpine hydrochloride serving as a saliva secretion promoter was intramuscularly injected thereto. […] A sialomucin content in the sialomucin fraction was quantified with a Sialic Acid Fluorescence Labeling Kit (Takara Bio Inc.). […] Free N-acetyl sialic acid or O-acetylated sialic acid was reacted at 55° C. for 2.5 hours by the addition of a DMB reagent as a fluorescence labeling agent and then quantified by high-performance liquid chromatography."}, "enteropathogenic E. coli": {"system": "enteropathogenic E. coli", "details": "SD rats"}, "[4]": {"system": "enteropathogenic E. coli O-157", "assay": "Test II on prevention of enteropathogenic E. coli O-157 infection", "type": "in vivo", "details": "mice, 8th day after administration of E. coli", "method": "Sphingomyelin was tested for its effect of preventing enteropathogenic E. coli O-157 infection according to the method described in “Test Example 2” of Japanese Patent Laid-Open No. 2001-2704.\nTest II on prevention of enteropathogenic E. coli O-157 infection\nThe survival rate of mice on the 8th day after the administration of E. coli was measured in the same way as in Test Example 10 except that the intake of sphingomyelin was changed to 0.1 to 10 mg/day."}, "[5]": {"system": "phototoxic pigmentation caused by treatment with 8MOP", "type": "in vivo, female ICR mice", "details": "for depigmentation / pigmentation grade (Table 12: +3 whitened to −3 evidently blackened): 5% sample, 50 μl once daily", "from_the_text": "An anti-pigmentation effect and the degree of pigmentation (shown in Table 12) produced as a side effect were rated by four-grade evaluation (+: depigmentation effect, −: side effect). […] Moreover, no agent was applied to a control group. […] [table]"}},
  "note": "Read-outs that look alike come from different tables or passages of the source.",
  "data": [
    {"substance": "sphingomyelin", "values": [
      {"measurement": "Inhibition rate", "setting": "cholera toxin", "value": "38.9 ± 3.8", "unit": "%"},
      {"measurement": "symptoms after administration", "setting": "Male Wistar rats", "value": "only staggering gait"},
      {"measurement": "time to recover from drunken symptoms", "setting": "Male Wistar rats; control 5 hours", "value": "≤ 1", "unit": "h"},
      {"measurement": "own toxicity (colony forming activity)", "setting": "[1]", "value": "no reduction in colony forming activity"},
      {"measurement": "Inhibition rate", "setting": "[2]", "value": 40.2, "unit": "%"},
      {"measurement": "Sialomucin content", "setting": "[3]", "value": "25.2 ± 2.9", "unit": "µg/µL"},
      {"measurement": "Incidence of diarrhea", "setting": "enteropathogenic E. coli; intake 0.1 mg/day in feed, control 100", "value": 100, "unit": "%"},
      {"measurement": "Incidence of diarrhea", "setting": "enteropathogenic E. coli; intake 1.0 mg/day in feed", "value": 40, "unit": "%"},
      {"measurement": "Incidence of diarrhea", "setting": "enteropathogenic E. coli; intake 5.0 mg/day in feed", "value": 30, "unit": "%"},
      {"measurement": "Incidence of diarrhea", "setting": "enteropathogenic E. coli; intake 10.0 mg/day in feed", "value": 10, "unit": "%"},
      {"measurement": "Survival rate", "setting": "[4]; intake 0.1 mg/day, control 35", "value": 35, "unit": "%"},
      {"measurement": "Survival rate", "setting": "[4]; intake 1.0 mg/day", "value": 65, "unit": "%"},
      {"measurement": "Survival rate", "setting": "[4]; intake 5.0 mg/day", "value": 70, "unit": "%"},
      {"measurement": "Survival rate", "setting": "[4]; intake 10.0 mg/day", "value": 70, "unit": "%"},
      {"measurement": "depigmentation / pigmentation grade (Table 12: +3 whitened to −3 evidently blackened)", "setting": "[5]; application period 1 week", "value": 0.4},
      {"measurement": "depigmentation / pigmentation grade (Table 12: +3 whitened to −3 evidently blackened)", "setting": "[5]; application period 2 weeks", "value": 0.8},
      {"measurement": "depigmentation / pigmentation grade (Table 12: +3 whitened to −3 evidently blackened)", "setting": "[5]; application period 3 weeks", "value": 1.2},
      {"measurement": "depigmentation / pigmentation grade (Table 12: +3 whitened to −3 evidently blackened)", "setting": "[5]; application period 4 weeks", "value": 1.1},
      {"measurement": "depigmentation / pigmentation grade (Table 12: +3 whitened to −3 evidently blackened)", "setting": "[5]; application period 5 weeks", "value": 0.9},
      {"measurement": "depigmentation / pigmentation grade (Table 12: +3 whitened to −3 evidently blackened)", "setting": "[5]; application period 6 weeks", "value": 0.3},
      {"measurement": "depigmentation / pigmentation grade (Table 12: +3 whitened to −3 evidently blackened)", "setting": "[5]; application period 7 weeks", "value": 0},
      {"measurement": "depigmentation / pigmentation grade (Table 12: +3 whitened to −3 evidently blackened)", "setting": "[5]; application period 8 weeks", "value": 0},
      {"measurement": "side effect (pigmentation) on application", "setting": "[5]; mouse, in vivo", "value": "no side effect"}
    ]}
  ]
}
